SMILES strings stand for the structures. Bridge positions count the residues as written; N and C are the ends. Peptide text beside a SMILES is read from it.

Chain of Sodium channel protein type 5 subunit alpha (Q14524 whole entry): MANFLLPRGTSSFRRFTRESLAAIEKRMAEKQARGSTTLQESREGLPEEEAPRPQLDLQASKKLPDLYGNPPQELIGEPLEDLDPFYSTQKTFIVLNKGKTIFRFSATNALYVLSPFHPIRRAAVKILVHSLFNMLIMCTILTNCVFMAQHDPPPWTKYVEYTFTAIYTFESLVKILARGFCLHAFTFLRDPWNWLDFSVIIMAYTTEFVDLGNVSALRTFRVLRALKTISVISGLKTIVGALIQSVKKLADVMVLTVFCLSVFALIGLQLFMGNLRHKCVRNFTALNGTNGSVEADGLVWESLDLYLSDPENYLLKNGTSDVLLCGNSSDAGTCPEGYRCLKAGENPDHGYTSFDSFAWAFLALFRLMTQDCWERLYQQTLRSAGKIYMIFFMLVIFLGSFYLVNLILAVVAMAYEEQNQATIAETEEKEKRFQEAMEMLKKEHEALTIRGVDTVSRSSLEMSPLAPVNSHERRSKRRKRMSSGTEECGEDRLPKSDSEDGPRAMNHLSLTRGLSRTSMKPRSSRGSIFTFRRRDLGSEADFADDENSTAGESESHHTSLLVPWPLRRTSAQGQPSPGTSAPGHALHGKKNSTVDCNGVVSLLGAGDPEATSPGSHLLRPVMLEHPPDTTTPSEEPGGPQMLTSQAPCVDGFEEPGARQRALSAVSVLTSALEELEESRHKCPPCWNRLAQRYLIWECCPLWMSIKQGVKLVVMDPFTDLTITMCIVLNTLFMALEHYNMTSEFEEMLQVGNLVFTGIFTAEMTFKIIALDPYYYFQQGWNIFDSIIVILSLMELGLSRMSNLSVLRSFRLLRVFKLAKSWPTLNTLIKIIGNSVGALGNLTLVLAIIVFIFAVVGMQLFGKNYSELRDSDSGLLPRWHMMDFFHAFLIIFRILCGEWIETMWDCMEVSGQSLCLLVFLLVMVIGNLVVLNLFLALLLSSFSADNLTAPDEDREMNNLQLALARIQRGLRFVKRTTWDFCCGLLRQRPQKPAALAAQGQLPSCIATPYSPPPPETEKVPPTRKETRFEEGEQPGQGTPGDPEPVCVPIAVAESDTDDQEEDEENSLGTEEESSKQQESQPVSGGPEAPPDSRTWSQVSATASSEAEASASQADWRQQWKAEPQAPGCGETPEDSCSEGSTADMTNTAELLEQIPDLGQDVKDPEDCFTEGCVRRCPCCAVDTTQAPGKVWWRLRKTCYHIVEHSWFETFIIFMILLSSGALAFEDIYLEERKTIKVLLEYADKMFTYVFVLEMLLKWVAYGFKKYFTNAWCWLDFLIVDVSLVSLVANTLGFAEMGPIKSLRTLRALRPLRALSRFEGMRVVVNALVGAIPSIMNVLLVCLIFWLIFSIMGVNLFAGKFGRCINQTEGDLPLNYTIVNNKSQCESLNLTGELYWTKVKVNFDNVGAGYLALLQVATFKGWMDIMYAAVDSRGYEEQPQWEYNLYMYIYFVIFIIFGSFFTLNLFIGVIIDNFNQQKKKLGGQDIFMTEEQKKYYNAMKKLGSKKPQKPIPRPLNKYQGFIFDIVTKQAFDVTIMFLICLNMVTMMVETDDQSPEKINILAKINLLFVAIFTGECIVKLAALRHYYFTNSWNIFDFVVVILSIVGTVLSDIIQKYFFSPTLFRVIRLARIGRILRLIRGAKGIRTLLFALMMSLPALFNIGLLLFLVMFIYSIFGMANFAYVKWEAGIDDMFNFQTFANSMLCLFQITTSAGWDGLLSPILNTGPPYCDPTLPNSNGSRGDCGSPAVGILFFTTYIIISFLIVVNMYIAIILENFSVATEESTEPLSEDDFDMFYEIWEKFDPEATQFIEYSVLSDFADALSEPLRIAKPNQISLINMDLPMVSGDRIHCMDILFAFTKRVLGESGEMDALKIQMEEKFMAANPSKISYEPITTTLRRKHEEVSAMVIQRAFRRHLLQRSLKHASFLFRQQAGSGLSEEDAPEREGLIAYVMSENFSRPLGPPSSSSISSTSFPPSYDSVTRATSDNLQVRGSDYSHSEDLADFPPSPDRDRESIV

The test addresses Sodium channel protein type 5 subunit alpha (Homo sapiens, UniProt Q14524). As to the kind of experiment: Inhibition of human NaV1.5 at -140 mV holding potential by whole-cell patch clamp assay.
The IC50 is the concentration that gives 50% inhibition. A low value points to greater potency. In the case of `CSCC[C@@H]1NC(=O)[C@H](Cc2ccccc2)NC(=O)CNC(=O)[C@H](CC(C)C)NC(=O)[C@@H](NC(=O)[C@@H](N)CC(=O)O)CSSC[C@@H]2NC(=O)[C@@H]3CSSC[C@@H](C(=O)N[C@@H](CCCCN)C(=O)N[C@@H](Cc4ccc(O)cc4)C(=O)N[C@H](C(=O)N[C@@H](Cc4ccccc4)C(N)=O)C(C)C)NC(=O)[C@H](Cc4c[nH]c5ccccc45)NC(=O)[C@H](CCCCN)NC(=O)[C@H](Cc4cnc[nH]4)NC(=O)[C@H]([C@@H](C)O)NC(=O)[C@H](CCCNC(=N)N)NC(=O)[C@H](CO)NC(=O)[C@H](CSSC[C@H](NC(=O)[C@H](CCCCN)NC(=O)[C@H](CCCNC(=N)N)NC1=O)C(=O)N[C@@H](C)C(=O)N1CCC[C@H]1C(=O)N[C@@H](CC(=O)O)C(=O)N[C@@H](CC(N)=O)C(=O)N[C@@H](CC(=O)O)C(=O)N[C@@H](CCCCN)C(=O)N3)NC(=O)[C@H](C(C)C)NC(=O)[C@H](CC(C)C)NC(=O)[C@H](CC(N)=O)NC(=O)[C@@H]1CCCN1C(=O)[C@H](CCCNC(=N)N)NC2=O` (H-DCLGFMRKCAPDNDKCCRPNLVCSRTHKWCKYVF-NH2; disulfide 2-17, 9-23, 16-30), the concentration for half-maximal inhibition (IC50) is > 5 µM.

Regarding `CC[C@H](C)[C@@H]1NC(=O)[C@@H]2CSSC[C@@H]3NC(=O)[C@H](C(C)C)NC(=O)[C@H](CC(C)C)NC(=O)[C@H](CC(N)=O)NC(=O)[C@@H]4CCCN4C(=O)[C@H](CCCNC(=N)N)NC(=O)[C@H](CSSC[C@H](NC(=O)[C@@H](N)CC(=O)O)C(=O)N[C@@H](CC(C)C)C(=O)NCC(=O)N[C@@H](Cc4ccccc4)C(=O)N[C@@H](CCSC)C(=O)N[C@@H](CCCNC(=N)N)C(=O)N[C@@H](CCCCN)C(=O)N2)NC(=O)[C@H](CSSC[C@@H](C(=O)N[C@@H](CCCCN)C(=O)N[C@@H](Cc2ccc(O)cc2)C(=O)N[C@H](C(=O)N[C@@H](Cc2ccccc2)C(N)=O)C(C)C)NC(=O)[C@H](Cc2c[nH]c4ccccc24)NC(=O)[C@H](CCCCN)NC(=O)[C@H](Cc2cnc[nH]2)NC(=O)[C@H]([C@@H](C)O)NC(=O)[C@H](CCCNC(=N)N)NC(=O)[C@H](CO)NC3=O)NC(=O)[C@H](CCCCN)NC(=O)[C@H](CC(=O)O)NC(=O)[C@H](CC(N)=O)NC(=O)[C@H](C)NC(=O)[C@@H]2CCCN2C1=O` (H-DCLGFMRKCIPANDKCCRPNLVCSRTHKWCKYVF-NH2; disulfide 2-17, 9-23, 16-30), the half-maximal inhibitory concentration (IC50) is > 5 µM. With `CC[C@H](C)[C@@H]1NC(=O)[C@@H]2CSSC[C@@H]3NC(=O)[C@H](C(C)C)NC(=O)[C@H](CC(C)C)NC(=O)[C@H](C)NC(=O)[C@@H]4CCCN4C(=O)[C@H](CCCNC(=N)N)NC(=O)[C@H](CSSC[C@H](NC(=O)[C@@H](N)CC(=O)O)C(=O)N[C@@H](CC(C)C)C(=O)NCC(=O)N[C@@H](Cc4ccccc4)C(=O)N[C@@H](CCSC)C(=O)N[C@@H](CCCNC(=N)N)C(=O)N[C@@H](CCCCN)C(=O)N2)NC(=O)[C@H](CSSC[C@@H](C(=O)N[C@@H](CCCCN)C(=O)N[C@@H](Cc2ccc(O)cc2)C(=O)N[C@H](C(=O)N[C@@H](Cc2ccccc2)C(N)=O)C(C)C)NC(=O)[C@H](Cc2c[nH]c4ccccc24)NC(=O)[C@H](CCCCN)NC(=O)[C@H](Cc2cnc[nH]2)NC(=O)[C@H]([C@@H](C)O)NC(=O)[C@H](CCCNC(=N)N)NC(=O)[C@H](CO)NC3=O)NC(=O)[C@H](CCCCN)NC(=O)[C@H](CC(=O)O)NC(=O)[C@H](CC(N)=O)NC(=O)[C@H](CC(=O)O)NC(=O)[C@@H]2CCCN2C1=O` (H-DCLGFMRKCIPDNDKCCRPALVCSRTHKWCKYVF-NH2; disulfide 2-17, 9-23, 16-30) the figure was > 5 µM. Consider `CC[C@H](C)[C@@H]1NC(=O)[C@@H]2CSSC[C@@H]3NC(=O)[C@H](C)NC(=O)[C@H](CC(C)C)NC(=O)[C@H](CC(N)=O)NC(=O)[C@@H]4CCCN4C(=O)[C@H](CCCNC(=N)N)NC(=O)[C@H](CSSC[C@H](NC(=O)[C@@H](N)CC(=O)O)C(=O)N[C@@H](CC(C)C)C(=O)NCC(=O)N[C@@H](Cc4ccccc4)C(=O)N[C@@H](CCSC)C(=O)N[C@@H](CCCNC(=N)N)C(=O)N[C@@H](CCCCN)C(=O)N2)NC(=O)[C@H](CSSC[C@@H](C(=O)N[C@@H](CCCCN)C(=O)N[C@@H](Cc2ccc(O)cc2)C(=O)N[C@H](C(=O)N[C@@H](Cc2ccccc2)C(N)=O)C(C)C)NC(=O)[C@H](Cc2c[nH]c4ccccc24)NC(=O)[C@H](CCCCN)NC(=O)[C@H](Cc2cnc[nH]2)NC(=O)[C@H]([C@@H](C)O)NC(=O)[C@H](CCCNC(=N)N)NC(=O)[C@H](CO)NC3=O)NC(=O)[C@H](CCCCN)NC(=O)[C@H](CC(=O)O)NC(=O)[C@H](CC(N)=O)NC(=O)[C@H](CC(=O)O)NC(=O)[C@@H]2CCCN2C1=O` (H-DCLGFMRKCIPDNDKCCRPNLACSRTHKWCKYVF-NH2; disulfide 2-17, 9-23, 16-30), for which the IC50 was > 5 µM. With `CC[C@H](C)[C@@H]1NC(=O)[C@@H]2CSSC[C@@H]3NC(=O)[C@H](C(C)C)NC(=O)[C@H](CC(C)C)NC(=O)[C@H](CC(N)=O)NC(=O)[C@@H]4CCCN4C(=O)[C@H](CCCNC(=N)N)NC(=O)[C@H](CSSC[C@H](NC(=O)[C@@H](N)CC(=O)O)C(=O)N[C@@H](CC(C)C)C(=O)NCC(=O)N[C@@H](Cc4ccccc4)C(=O)N[C@@H](CCSC)C(=O)N[C@@H](CCCNC(=N)N)C(=O)N[C@@H](CCCCN)C(=O)N2)NC(=O)[C@H](CSSC[C@@H](C(=O)N[C@@H](CCCCN)C(=O)N[C@@H](Cc2ccc(O)cc2)C(=O)N[C@H](C(=O)N[C@@H](Cc2ccccc2)C(N)=O)C(C)C)NC(=O)[C@H](Cc2c[nH]c4ccccc24)NC(=O)[C@H](CCCCN)NC(=O)[C@H](Cc2cnc[nH]2)NC(=O)[C@H]([C@@H](C)O)NC(=O)[C@H](CCCNC(=N)N)NC(=O)[C@H](C)NC3=O)NC(=O)[C@H](CCCCN)NC(=O)[C@H](CC(=O)O)NC(=O)[C@H](CC(N)=O)NC(=O)[C@H](CC(=O)O)NC(=O)[C@@H]2CCCN2C1=O` (H-DCLGFMRKCIPDNDKCCRPNLVCARTHKWCKYVF-NH2; disulfide 2-17, 9-23, 16-30) the figure was > 4.7 µM; with `CC[C@H](C)[C@@H]1NC(=O)[C@@H]2CSSC[C@@H]3NC(=O)[C@H](C(C)C)NC(=O)[C@H](CC(C)C)NC(=O)[C@H](CC(N)=O)NC(=O)[C@@H]4CCCN4C(=O)[C@H](CCCNC(=N)N)NC(=O)[C@H](CSSC[C@H](NC(=O)[C@@H](N)CC(=O)O)C(=O)N[C@@H](CC(C)C)C(=O)NCC(=O)N[C@@H](Cc4ccccc4)C(=O)N[C@@H](CCSC)C(=O)N[C@@H](CCCNC(=N)N)C(=O)N[C@@H](CCCCN)C(=O)N2)NC(=O)[C@H](CSSC[C@@H](C(=O)N[C@@H](CCCCN)C(=O)N[C@@H](Cc2ccc(O)cc2)C(=O)N[C@H](C(=O)N[C@@H](Cc2ccccc2)C(N)=O)C(C)C)NC(=O)[C@H](Cc2c[nH]c4ccccc24)NC(=O)[C@H](CCCCN)NC(=O)[C@H](Cc2cnc[nH]2)NC(=O)[C@H](CCCNC(=N)N)NC(=O)[C@H](CCCNC(=N)N)NC(=O)[C@H](CO)NC3=O)NC(=O)[C@H](CCCCN)NC(=O)[C@H](CC(=O)O)NC(=O)[C@H](CC(N)=O)NC(=O)[C@H](CC(=O)O)NC(=O)[C@@H]2CCCN2C1=O` (H-DCLGFMRKCIPDNDKCCRPNLVCSRRHKWCKYVF-NH2; disulfide 2-17, 9-23, 16-30), 0.5 µM. Consider `CC[C@H](C)[C@@H]1NC(=O)[C@@H]2CSSC[C@@H]3NC(=O)[C@H](C(C)C)NC(=O)[C@H](CC(C)C)NC(=O)[C@H](CC(N)=O)NC(=O)[C@@H]4CCCN4C(=O)[C@H](CCCNC(=N)N)NC(=O)[C@H](CSSC[C@H](NC(=O)[C@@H](N)CC(=O)O)C(=O)N[C@@H](CC(C)C)C(=O)NCC(=O)N[C@@H](Cc4ccccc4)C(=O)N[C@@H](CCSC)C(=O)N[C@@H](CCCNC(=N)N)C(=O)N[C@@H](CCCCN)C(=O)N2)NC(=O)[C@H](CSSC[C@@H](C(=O)N[C@@H](CCCCN)C(=O)N[C@@H](C)C(=O)N[C@H](C(=O)N[C@@H](Cc2ccccc2)C(N)=O)C(C)C)NC(=O)[C@H](Cc2c[nH]c4ccccc24)NC(=O)[C@H](CCCCN)NC(=O)[C@H](Cc2cnc[nH]2)NC(=O)[C@H]([C@@H](C)O)NC(=O)[C@H](CCCNC(=N)N)NC(=O)[C@H](CO)NC3=O)NC(=O)[C@H](CCCCN)NC(=O)[C@H](CC(=O)O)NC(=O)[C@H](CC(N)=O)NC(=O)[C@H](CC(=O)O)NC(=O)[C@@H]2CCCN2C1=O` (H-DCLGFMRKCIPDNDKCCRPNLVCSRTHKWCKAVF-NH2; disulfide 2-17, 9-23, 16-30), for which the IC50 was > 5 µM. With `CC[C@H](C)[C@@H]1NC(=O)[C@@H]2CSSC[C@@H]3NC(=O)[C@H](C(C)C)NC(=O)[C@H](CC(C)C)NC(=O)[C@H](CC(N)=O)NC(=O)[C@@H]4CCCN4C(=O)[C@H](CCCNC(=N)N)NC(=O)[C@H](CSSC[C@H](NC(=O)[C@@H](N)CC(=O)O)C(=O)N[C@@H](CC(C)C)C(=O)NCC(=O)NCC(=O)N[C@@H](CCSC)C(=O)N[C@@H](CCCNC(=N)N)C(=O)N[C@@H](CCCCN)C(=O)N2)NC(=O)[C@H](CSSC[C@@H](C(=O)N[C@@H](CCCCN)C(=O)N[C@@H](Cc2ccc(O)cc2)C(=O)N[C@H](C(=O)N[C@@H](Cc2ccccc2)C(N)=O)C(C)C)NC(=O)[C@H](Cc2c[nH]c4ccccc24)NC(=O)[C@H](CCCCN)NC(=O)[C@H](Cc2cnc[nH]2)NC(=O)[C@H]([C@@H](C)O)NC(=O)[C@H](CCCNC(=N)N)NC(=O)[C@H](CO)NC3=O)NC(=O)[C@H](CCCCN)NC(=O)[C@H](CC(=O)O)NC(=O)[C@H](CC(N)=O)NC(=O)[C@H](CC(=O)O)NC(=O)[C@@H]2CCCN2C1=O` (H-DCLGGMRKCIPDNDKCCRPNLVCSRTHKWCKYVF-NH2; disulfide 2-17, 9-23, 16-30) the figure was > 10 µM.

(Values after ChEMBL document CHEMBL3414527, “Engineering potent and selective analogues of GpTx-1, a tarantula venom peptide antagonist of the Na(V)1.7 sodium channel” (J Med Chem, 2015).)
